Data on 1 molecule can be found in article PMC10634346 (Cancer Research Communications, 2023).

In general, IC50 refers to the concentration at which inhibition is half-maximal.

Structures are written as SMILES. Where two headings read alike, the source gives them in different places.

Test [1] concerns MYC and MCL1 mRNA in SU-DHL-4 cells. As to the kind of experiment: In vitro washout, MYC and MCL1 mRNA qPCR, SU-DHL-4. The note with it: 1 µmol/L, 4 h treatment then washout. It counts as cell-based, human. The protocol:
Evaluation of the pharmacodynamic extent and duration of CDK9 inhibition were performed in vitro using the human DLBCL cell lines SU-DHL-4 and SU-DHL-10, harboring MYC amplification and MYC overexpression with P57T mutation, respectively. Cells were seeded 18 hours prior to treatment for 4 hours with one of three CDK9 inhibitors, enitociclib (0.25 and1 µmol/L), atuveciclib (1 µmol/L) or KB-0742 (1 µmol/L), cells were washed, and incubation continued until 48 hours posttreatment. Samples were collected before treatment (−4), immediately after treatment (0), and at 1, 2, 4, 8, 12, 16, 24, and 48 hours after washout for RNA sequencing (RNA-seq), qPCR, and Western blotting analyses. Total RNA was extracted from blood of patients and cell lines using RNeasy Plus Mini Kit (QIAGEN, #74136) and cDNA prepared with the Maxima First Strand cDNA Synthesis Kit for RT-PCR (Thermo Fisher Scientific, K1642) according to manufacturer's instructions. The integrity of purified total RNA was evaluated using an Agilent 2100 Bioanalyzer system and RNA 6000 Nano Kit (Agilent, #5067-1511). […] MYC and MCL1 mRNA levels were measured by qPCR in vitro and in vivo, using a Taqman qPCR system (Thermo Fisher Scientific), TaqMan Fast Universal PCR Master Mix (2X) no AmpErase (#4352042) and TaqMan probes for MYC (Hs00153408_m1) and MCL1 (Hs03043899_m1). RNA-seq data were analyzed using DESeq2 ([35]).
(Quantitative PCR measures a nucleic acid by following its amplification.)

The subject of test [2] is DH-DLBCL and other MYC+ NHL. Conditions: 30 mg i.v. once weekly, phase I; cited from earlier work.
In test [3] the test system is Myc and Mcl-1 protein in SU-DHL-10 cells. The experiment in a line: In vitro washout, Myc and Mcl-1 protein Western blot, SU-DHL-10. It counts as cell-based, human. Conditions: 1 µmol/L, 4 h treatment then washout. The protocol: (§1) Evaluation of the pharmacodynamic extent and duration of CDK9 inhibition were performed in vitro using the human DLBCL cell lines SU-DHL-4 and SU-DHL-10, harboring MYC amplification and MYC overexpression with P57T mutation, respectively. Cells were seeded 18 hours prior to treatment for 4 hours with one of three CDK9 inhibitors, enitociclib (0.25 and1 µmol/L), atuveciclib (1 µmol/L) or KB-0742 (1 µmol/L), cells were washed, and incubation continued until 48 hours posttreatment. Samples were collected before treatment (−4), immediately after treatment (0), and at 1, 2, 4, 8, 12, 16, 24, and 48 hours after washout for RNA sequencing (RNA-seq), qPCR, and Western blotting analyses.
The levels of p-Ser2, p-Ser5 and total RNA polymerase II, Myc, Mcl-1, cleaved PARP (cPARP), and cleaved Caspase 3 were assessed by Western blotting and quantified near-infrared detection and background corrected quantification of fluorescence intensity on an Odyssey Imaging System with IRDye secondary antibodies (LI-COR Biosciences). For quantification, the protein levels were normalized to GAPDH or HSP90, expressed as a ratio to DMSO or vehicle control at matched timepoints. The normalized relative protein levels of p-Ser2 were used for a treatment effect comparison by performing an ANOVA using PROC MIXED in SAS. The ANOVA model included treatment, timepoints and their interactions as fixed effects. […]
In general terms: In western blotting, separated proteins are transferred to a membrane and probed.

Test [4] concerns panel of 35 human lymphoma cell lines. As to the kind of experiment: CellTiter-Glo cell viability, lymphoma cell line panel (OmniScreen). It counts as cell-based. The protocol: (§2) Human DLBCL cell lines SU-DHL-4 (#ACC 495) and SU-DHL-10 (#ACC 576) were obtained from DSMZ (German Collection of Microorganisms and Cell Cultures). The supplier used PCR-based DNA profiling of polymorphic short tandem repeats for authentication and Mycoplasma testing prior to shipment. Cells were cultured in suspension at 37°C in a humidified atmosphere containing 5% CO2. CDK9 inhibitors KB-0742 (MedChemExpress, #HY-137478A), enitociclib, and atuveciclib ([…] Pharma, Inc.) were used. A subset of 35 lymphoma cell lines is from a 500-cell line panel where the effect of enitociclib on cell viability using CellTiter-Glo luminescent cell viability was determined (OmniScreen, CrownBioscience). Genetic status and gene expression level for MYC and MCL1 was obtained from CrownBioscience.
In general terms: ATP-based viability assays read luminescence as a measure of living cells.

The test system of test [5] is RNA polymerase II Ser2 phosphorylation (p-Ser2) in SU-DHL-10 cells. As to the kind of experiment: In vitro washout, p-Ser2 Western blot, SU-DHL-10. It counts as cell-based, human. Conditions: 1 µmol/L. The protocol:
as §1
(§3) The levels of p-Ser2, p-Ser5 and total RNA polymerase II, Myc, Mcl-1, cleaved PARP (cPARP), and cleaved Caspase 3 were assessed by Western blotting and quantified near-infrared detection and background corrected quantification of fluorescence intensity on an Odyssey Imaging System with IRDye secondary antibodies (LI-COR Biosciences). For quantification, the protein levels were normalized to GAPDH or HSP90, expressed as a ratio to DMSO or vehicle control at matched timepoints. The normalized relative protein levels of p-Ser2 were used for a treatment effect comparison by performing an ANOVA using PROC MIXED in SAS. The ANOVA model included treatment, timepoints and their interactions as fixed effects. The least square means (LSM), differences between the LSMs and associated P values were generated. The following primary antibodies were used: Rpb1 NTD (D8L4Y) rabbit antibody [Cell Signaling Technology (CST), #14958], anti-RNA polymerase II subunit B1 (phospho CTD Ser-2, clone 3E10) rat antibody (Merck, 04-1571-I), recombinant anti-c-MYC rabbit antibody (Y69; Abcam, #ab32072), MCL1 (D5V5L) rabbit antibody (CST, #39224), cleaved-PARP (Asp214) (E2T4K) mouse antibody (CST, #32563), HSP90 (C45G5) rabbit antibody (CST, #4877), and GAPDH mouse antibody (Zytomed Systems, #ZYT-RGM2-6C5).

For test [6], the system named is MYC mRNA in SU-DHL-10 cells. The experiment in a line: In vitro washout, MYC mRNA qPCR, SU-DHL-10. It counts as cell-based, human. The note with it: 4 h treatment then washout, for 16 to 48 hours after treatment. The protocol:
Evaluation of the pharmacodynamic extent and duration of CDK9 inhibition were performed in vitro using the human DLBCL cell lines SU-DHL-4 and SU-DHL-10, harboring MYC amplification and MYC overexpression with P57T mutation, respectively. Cells were seeded 18 hours prior to treatment for 4 hours with one of three CDK9 inhibitors, enitociclib (0.25 and1 µmol/L), atuveciclib (1 µmol/L) or KB-0742 (1 µmol/L), cells were washed, and incubation continued until 48 hours posttreatment. Samples were collected before treatment (−4), immediately after treatment (0), and at 1, 2, 4, 8, 12, 16, 24, and 48 hours after washout for RNA sequencing (RNA-seq), qPCR, and Western blotting analyses. Total RNA was extracted from blood of patients and cell lines using RNeasy Plus Mini Kit (QIAGEN, #74136) and cDNA prepared with the Maxima First Strand cDNA Synthesis Kit for RT-PCR (Thermo Fisher Scientific, K1642) according to manufacturer's instructions. The integrity of purified total RNA was evaluated using an Agilent 2100 Bioanalyzer system and RNA 6000 Nano Kit (Agilent, #5067-1511). Differential gene expression analysis was performed (Fios Genomics) from RNA-seq data (Discovery Life Sciences). MYC and MCL1 mRNA levels were measured by qPCR in vitro and in vivo, using a Taqman qPCR system (Thermo Fisher Scientific), TaqMan Fast Universal PCR Master Mix (2X) no AmpErase (#4352042) and TaqMan probes for MYC (Hs00153408_m1) and MCL1 (Hs03043899_m1). RNA-seq data were analyzed using DESeq2 ([35]).

Another test deals with SU-DHL-4. As to the kind of experiment: CellTiter-Glo cell viability, SU-DHL-4. It counts as cell-based. Conditions: Homo sapiens. The protocol: as §2
For test [7], the system named is Myc protein in SU-DHL-10 tumors. The experiment in a line: Pharmacodynamics in SU-DHL-10 xenograft tumors, Myc protein. It counts as in vivo, C.B-17 SCID mice. Conditions: single dose; within 4 to 8 hours postdose. The protocol:
as §3, with “#ZYT-RGM2-6C5). […]” for “#ZYT-RGM2-6C5).”

In the case of `COc1cc(F)ccc1-c1cc(Nc2cc(CS(C)(=N)=O)ccn2)ncc1F` (stereo not shown) [enitociclib], the “MYC and MCL1 mRNA levels over the 48-hour time course (in words)” value in test [1] was “durable depletion”. Also, the “complete metabolic remission (CR), patients with DH-DLBCL” value in test [2] was 2 of 7. In test [3], the “duration of sustained Myc and Mcl-1 protein depletion” value was 48 h. The 50% inhibitory concentration (IC50) in test [4] (Homo sapiens, lymphoma cell lines, media fu = 66.6%, read-out: mean unbound IC50 for cytotoxicity) was approximately 67 nM; in test [4] (range over panel of 35 human lymphoma cell lines, read-out: IC50 (cell cytotoxicity)) it was 43 to 152 nM; in the test on SU-DHL-4, 43 nM. For the same molecule, the “reduction of p-Ser2” value in test [5] (4-hour treatment then washout) came out at 50%. Moreover, the “duration of p-Ser2 reduction” value in test [5] (after treatment) was “up to 24 hours”. Further, in test [6], the “inhibition of MYC mRNA levels” value is on record as “approximately 75%”. The “reduction of Myc protein levels in tumors” value in test [7] was 50%.
